These results are taken from US11478451B1, “Macrocyclic chlorine substituted indole derivatives” (Bayer Aktiengesellschaft, priority 2017, dated 2022).

In data set [1] the test system is SUDHL5 cells. The data set can be described thus: Antiproliferation assay (CellTiter-Glo, 72 h), SUDHL5. The format is cell-based. Conditions: IC50, median, SUDHL5, 72 h, read-out: Antiproli SUDHL5 [M] (median). How it is done:
(§1) Assessment of the Anti-Proliferative Effect of Compounds in Different Cell Lines
(§2) The impact of compounds on the proliferation of different cell lines was assessed using the CellTiter-Glo® Luminescent Cell Viability reagent from Promega (G7573).
(§3) In parallel, cells were plated in a reference (day 0) plate for time zero determination.
(§4) Rim wells were excluded. The cells were incubated for 72 h hours in a humidified incubator at 37° C. The day 0 plate was measured by adding 30 μL/well of CTG solution (CellTiter-Glo® Luminescent Cell Viability reagent, Promega G7573) to time zero wells in the reference plate followed by a 10 minutes incubation and luminescence reading at 0.1 ms. using the PHERAstar FS microplate reader (BMG Labtech).
(§5) After 72 h incubation, the treated plates were measured in the same way as the day 0 plate mentioned above.
(ATP-based viability assays read luminescence as a measure of living cells.)

Data set [2] deals with SUDHL5 cells. The data set can be described thus: Induction of cytotoxicity (CellTiter-Glo, 5 h), SUDHL5. As to conditions: SUDHL5, 5 h.
Data set [3] deals with SUDHL5 cells. Put plainly: Induction of caspase-3/7 activity (Caspase-Glo 3/7), SUDHL5. It is filed as cell-based. Conditions: EC50, median, SUDHL5, 3 h treatment. The protocol: (§6) Induction of Caspase-3/7 Activity Upon Treatment of Cells with Selected Compounds
(§7) The BH3-domain of MCL-1 sequesters pro-apoptotic proteins, thereby inhibiting apoptosis. In contrast, MCL-1 inhibitors are expected to antagonize this effect leading to an increase in apoptosis, which can be determined by measuring the activity of caspase-3/7.
(§8) The activity of caspase-3/7 was determined in DLBCL (Diffuse large B-cell lymphoma) cell lines (SUDHL5 and SUDHL10) upon treatment with different compounds, using the Caspase-Glo® 3/7 reagent from Promega (G8092).
(§9) Rim wells were excluded. The cells were incubated for 3 h hours in a humidified incubator at 37° C.
(§10) For the evaluation of the results, the background measured with “medium-only” was subtracted from all other values.

Data set [4] concerns SUDHL10 cells. The data set can be described thus: Induction of cytotoxicity (CellTiter-Glo, 5 h), SUDHL10. As to conditions: SUDHL10, 5 h.
The subject of data set [5] is AMO-1 cells. Put plainly: Antiproliferation assay (CellTiter-Glo, 72 h), AMO-1. As to conditions: IC50, median, AMO-1, 72 h, read-out: Antiproli AMO-1 [M] median. It is filed as cell-based. The protocol: as §1, §2, §3, §4, §5
The subject of data set [6] is SUDHL10 cells. Put plainly: Induction of caspase-3/7 activity (Caspase-Glo 3/7), SUDHL10. The format is cell-based. As to conditions: EC50, median, SUDHL10, 3 h treatment. How it is done: as §6, §7, §8, §9, §10
Where [7] appears, read: Homo sapiens, SU-DHL-5, 5 h, read-out: Cytotox SUDHL5 [M] (median), IC50, median.
[8] abbreviates: Homo sapiens, SU-DHL10, 5 h, read-out: Cytotox SUDHL10 [M] (median), IC50, median.
The mark [9] stands for this setting: read-out: Cytotox SUDHL5 [M] (median), IC50, median.
Where [10] appears, read: read-out: Cytotox SUDHL10 [M] (median), IC50, median.

Structures can show the parent of a compound that is named as a salt. Where two headings read alike, the source gives them in different places.

Turning to `CCc1c2c(nn1C)CN(CC(F)F)CCCCn1c(C(=O)O)c(CCCOc3cccc4cc(F)ccc34)c3ccc(Cl)c-2c31` (single isomer, unassigned; enantiomer 1) [Example 75, (+)-4-chloro-14-(2,2-difluoroethyl)-3-ethyl-7-{3-[(6-fluoronaphthalen-1-yl)oxy]propyl}-2-methyl-10,11,12,13,14,15-hexahydro-2H-pyrazolo[3′,4′:8,9][1,6]diazacycloundecino[10,11,1-hi]indole-8-carboxylic acid-N-ethylethanamine salt (Enantiomer 1)], the IC50 in data set [1] (listed as 075) amounted to 1.6e-06 M; in data set [2] (read-out: Cytotox SUDHL5 [M] (median), IC50, median, listed as 075) it was 9.1e-07 M; in data set [4] (read-out: Cytotox SUDHL10 [M] (median), IC50, median, listed as 075) it was 1.4e-06 M; in data set [5] (listed as 075) it was 4.8e-06 M. The results for the EC50 in data set [3] (listed as 075) and in data set [6] (listed as 075) were 0.55 µM and 3.5 µM, respectively.

As to `Cc1c2c(nn1C)COCCCCn1c(C(=O)O)c(CCCOc3cccc4cc(F)ccc34)c3ccc(Cl)c-2c31` (single isomer, unassigned; enantiomer 1) [Example 16, (−)-4-chloro-7-{3-[(6-fluoronaphthalen-1-yl)oxy]propyl}-2,3-dimethyl-2,10,11,12,13,15-hexahydropyrazolo[4′,3′:9,10][1,6]oxazacycloundecino[8,7,6-hi]indole-8-carboxylic acid (Enantiomer 1)], the IC50 was found to be 1.5e-06 M in data set [1] (Homo sapiens, SU-DHL-5, 72 h); 3.3e-06 M in data set [2] (setting [7]); 4.9e-06 M in data set [4] (setting [8]); 8.9e-06 M in data set [5] (Homo sapiens, AMO1, 72 h). The EC50 in data set [3] (Homo sapiens, SU-DHL-5, 3 h) stood at 3.6 µM; in data set [6] (Homo sapiens, SU-DHL10, 3 h), 5.2 µM.

With `CCc1c2c(nn1C)CN(CCC(C)(C)O)CCCCn1c(C(=O)O)c(CCCOc3cccc4cc(F)ccc34)c3ccc(Cl)c-2c31` (single isomer, unassigned; enantiomer 2) [Example 141, 4-chloro-3-ethyl-7-{3-[(6-fluoronaphthalen-1-yl)oxy]propyl}-14-(3-hydroxy-3-methylbutyl)-2-methyl-10,11,12,13,14,15-hexahydro-2H-pyrazolo[3′,4′:8,9][1,6]diazacycloundecino[10,11,1-hi]indole-8-carboxylic acid (Enantiomer 2)], the IC50 in data set [1] (Homo sapiens, SU-DHL-5, 72 h) came out at 1.6e-06 M; in data set [2] (setting [7]) it was 2.6e-06 M; in data set [4] (setting [8]) it was 3.6e-06 M; in data set [5] (Homo sapiens, AMO1, 72 h) it was 2.4e-06 M. Also, the EC50 in data set [3] (Homo sapiens, SU-DHL-5, 3 h) amounted to 3 µM; in data set [6] (Homo sapiens, SU-DHL10, 3 h), 3.6 µM.

As to `CCc1c2c(nn1C)CCCN(C)CCn1c(C(=O)O)c(CCCOc3cccc4cc(F)ccc34)c3ccc(Cl)c-2c31` (single isomer, unassigned) [Example 117, (−)-4-chloro-3-ethyl-7-{3-[(6-fluoronaphthalen-1-yl)oxy]propyl}-2,12-dimethyl-10,11,12,13,14,15-hexahydro-2H-pyrazolo[3′,4′:8,9][1,4]diazacycloundecino[10,11,1-hi]indole-8-carboxylic acid], the IC50 in data set [1] was found to be 3.4e-06 M; in data set [2] (setting [9]), 2.6e-06 M; in data set [4] (setting [10]) it was 2.3e-06 M; in data set [5], 1.2e-06 M. Also, the results for the EC50 in data set [3] and in data set [6] were 2.4 µM and 2.6 µM, respectively.

With `CCc1c2c(nn1C)CCCCCCn1c(C(=O)O)c(CCCOc3cccc4cc(F)ccc34)c3ccc(Cl)c-2c31` (single isomer, unassigned; enantiomer 1) [Example 70, (+)-4-chloro-3-ethyl-7-{3-[(6-fluoronaphthalen-1-yl)oxy]propyl}-2-methyl-10,11,12,13,14,15-hexahydro-2H-pyrazolo[4′,3′:4,5]azacycloundecino[3,2,1-hi]indole-8-carboxylic acid-N-ethylethanamine salt (Enantiomer 1)], the IC50 turned out to be 1.5e-06 M in data set [1] (Homo sapiens, SU-DHL-5, 72 h); 1e-06 M in data set [2] (setting [7]); 1.7e-06 M in data set [4] (setting [8]); 1.1e-06 M in data set [5] (Homo sapiens, AMO1, 72 h). The EC50 in data set [3] (Homo sapiens, SU-DHL-5, 3 h) amounted to 0.71 µM; in data set [6] (Homo sapiens, SU-DHL10, 3 h), 1.3 µM.

For `CCc1c2c(nn1C)COCC1(CCn3c(C(=O)O)c(CCCOc4cccc5cc(F)ccc45)c4ccc(Cl)c-2c43)CC1` [Example 111, (+)-4′-chloro-3′-ethyl-7′-{3-[(6-fluoronaphthalen-1-yl)oxy]propyl}-2′-methyl-2′,10′,11′,15′-tetrahydro-13′H-spiro[cyclopropane-1,12′-pyrazolo[4′,3′:9,10][1,6]oxazacycloundecino[8,7,6-hi]indole]-8′-carboxylic acid-N-ethylethanamine salt], the IC50 stood at 3.1e-07 M in data set [1], 6e-06 M in data set [2] (setting [9]), 6.7e-06 M in data set [4] (setting [10]) and 8.4e-06 M in data set [5]. For the same compound, the EC50 in data set [3] worked out at 5 µM; in data set [6], 4.9 µM.

Turning to `CCc1c2c(nn1C)COCCCCn1c(C(=O)O)c(CCCOc3cccc4cc(F)ccc34)c3ccc(Cl)c-2c31` (single isomer, unassigned; enantiomer 1) [Example 69, 4-chloro-3-ethyl-7-{3-[(6-fluoronaphthalen-1-yl)oxy]propyl}-2-methyl-2,10,11,12,13,15-hexahydropyrazolo[4′,3′:9,10][1,6]oxazacycloundecino[8,7,6-hi]indole-8-carboxylic acid (Enantiomer 1)], the IC50 is 4.2e-06 M in data set [1] (Homo sapiens, SU-DHL-5, 72 h); 2.3e-06 M in data set [2] (setting [7]); 7.3e-06 M in data set [4] (setting [8]). In addition, the EC50 in data set [3] (Homo sapiens, SU-DHL-5, 3 h) stood at 1.8 µM; in data set [6] (Homo sapiens, SU-DHL10, 3 h) it was 8.3 µM.

Regarding `CCc1c2c(nn1C)CN(C)CC(F)(F)CCn1c(C(=O)O)c(CCCOc3cccc4cc(F)ccc34)c3ccc(Cl)c-2c31` (single isomer, unassigned) [Example 128, 4-chloro-3-ethyl-12,12-difluoro-7-{3-[(6-fluoronaphthalen-1-yl)oxy]propyl}-2,14-dimethyl-10,11,12,13,14,15-hexahydro-2H-pyrazolo[3′,4′:8,9][1,6]diazacycloundecino[10,11,1-hi]indole-8-carboxylic acid], the IC50 in data set [1] was 4.1e-06 M; in data set [2] (setting [9]), 2.3e-06 M; in data set [4] (setting [10]), 3.6e-06 M; in data set [5], 6.5e-06 M. Also, the EC50 in data set [3] is 2.1 µM; in data set [6], 3.4 µM.

With `CCc1c2c(nn1C)COCC1(CCn3c(C(=O)O)c(CCCOc4cccc5ccccc45)c4ccc(Cl)c-2c43)CC1` (racemic) [Example 72, (rac)-4′-chloro-3′-ethyl-2′-methyl-7′-{3-[(naphthalen-1-yl)oxy]propyl}-2′,10′,11′,15′-tetrahydro-13′H-spiro[cyclopropane-1,12′-pyrazolo[4′,3′:9,10][1,6]oxazacycloundecino[8,7,6-hi]indole]-8′-carboxylic acid], the IC50 in data set [1] (Homo sapiens, SU-DHL-5, 72 h) is 8.8e-07 M; in data set [2] (setting [7]), 1e-06 M; in data set [4] (setting [8]), 2.5e-06 M; in data set [5] (Homo sapiens, AMO1, 72 h), 2.8e-06 M. Further, the 50% effective concentration (EC50) was found to be 0.73 µM in data set [3] (Homo sapiens, SU-DHL-5, 3 h) and 2.8 µM in data set [6] (Homo sapiens, SU-DHL10, 3 h).

In the case of `CCc1c2c(nn1C)COCC1CC1Cn1c(C(=O)O)c(CCCOc3cccc4cc(F)ccc34)c3ccc(Cl)c-2c31` (racemic) [Example 106, (rac)-3-chloro-4-ethyl-14-{3-[(6-fluoronaphthalen-1-yl)oxy]propyl}-5-methyl-5,7,9a,10,10a,11-hexahydro-9H-cyclopropa[3,4]pyrazolo[4′,3′:9,10][1,6]oxazacycloundecino[8,7,6-hi]indole-13-carboxylic acid], the IC50 was 2.1e-06 M in data set [1], 2.8e-06 M in data set [2] (setting [9]), 5.8e-06 M in data set [4] (setting [10]) and 8.1e-06 M in data set [5]. Further, the concentration giving a half-maximal response (EC50) in data set [3] (Homo sapiens, SU-DHL-5, 3 h) amounted to 2.4 µM; in data set [6], 4.6 µM.

One may read the EC50 as the concentration that produces a half-maximal response. Read a low EC50 as an effect from little substance.
